The text below walks through data of ChEMBL document CHEMBL6127120, “Antiplasmodial and Insecticidal Activities of Third-Generation Ivermectin Hybrids” (J Med Chem, 2024).

Holding throughout (assay type): functional, organism-based
Test [1] relates to Plasmodium berghei. Kind of test: Anti-plasmodial activity against pre-erythrocytic stage Plasmodium berghei infected in human Huh-7 cells at 10 to 500 nM by bioluminescence assay. The conditions noted are these: dose 10-500 nM.
Test [2] deals with Plasmodium berghei. Kind of test: Anti-plasmodial activity against pre-erythrocytic stage Plasmodium berghei infected in human Huh-7 cells by bioluminescence assay.
For test [3], the system named is Anopheles stephensi. Kind of test: Anti-insecticidal activity against female Anopheles stephensi mosquitoes assessed as mosquito survival treated after 18 to 22 hrs starvation using 70 ng/ml compound containing human O+ blood meal via artificial membrane measured after 14 days relative to control.
In test [4] the test system is Plasmodium falciparum. Briefly: Anti-plasmodial activity against erythrocytic stage Plasmodium falciparum NF54 in […] measured after 48 hrs by SYBR green dye based flow cytometry. The conditions noted are these: NF54, 48 h.
In test [5] the test system is Plasmodium berghei. Kind of test: Anti-plasmodial activity against hepatic stage GFP-expressing Plasmodium berghei infected in human Huh-7 cells assessed as parasite invasion of host cells treated at IC90 measured after 2 hrs of post-infection by flow cytometry. On the technique in general: A flow cytometer gives signals particle by particle.
Test [6] has as its system Plasmodium berghei. Kind of test: In vivo antiplasmodial activity against Balb/c mouse infected with luciferase expressing Plasmodium berghei infected in red blood cells assessed as parasitemia in blood by measuring bioluminescence at 2 mg/kg, oral gavage 4 consecutive treatment measured upto day 8. The conditions noted are these: time 8.0 day.
Test [7] concerns Plasmodium berghei. Briefly: Anti-plasmodial activity against hepatic stage GFP-expressing Plasmodium berghei infected in human Huh-7 cells assessed as parasite invasion of host cells treated at IC90 measured after 48 hrs of post-infection by flow cytometry.
The subject of test [8] is Plasmodium berghei. Briefly: In vivo antiplasmodial activity against Balb/c mouse infected with luciferase expressing Plasmodium berghei infected in red blood cells assessed as parasitemia in blood by measuring bioluminescence at 50 mg/kg, oral gavage 4 consecutive treatment measured upto day 8. The conditions noted are these: time 8.0 day.

Calls of active or inactive are those of the source. No cut-off for these calls is given here.

For the compound `CCC(C)[C@H]1O[C@]2(CC[C@@H]1C)C[C@@H]1C[C@@H](C/C=C(\C)[C@@H](O[C@H]3C[C@H](OC)[C@@H](OC(=O)CCl)[C@H](C)O3)[C@@H](C)/C=C/C=C3\CO[C@@H]4[C@H](O)C(C)=C[C@@H](C(=O)O1)[C@]34O)O2` (stereo not given in full), the outcome in test [1] was inactive.

The term IC50 denotes the concentration that gives 50% inhibition. In test [2], `CCC(C)[C@H]1O[C@]2(CC[C@@H]1C)C[C@@H]1C[C@@H](C/C=C(\C)[C@@H](O[C@H]3C[C@H](OC)[C@@H](O)[C@H](C)O3)[C@@H](C)/C=C/C=C3\CO[C@@H]4[C@H](O)C(C)=C[C@@H](C(=O)O1)[C@]34O)O2` (stereo not given in full) returned a half-inhibitory concentration (IC50) of 5630 nM. Further, the outcome in test [3] was Active. In addition, the outcome in test [1] was inactive.

For the compound `CCC(C)[C@H]1O[C@]2(CC[C@@H]1C)C[C@@H]1C[C@@H](C/C=C(\C)[C@@H](O[C@H]3C[C@H](OC)[C@@H](O[C@H]4C[C@H](OO)[C@@H](O)[C@H](C)O4)[C@H](C)O3)[C@@H](C)/C=C/C=C3\CO[C@@H]4[C@H](O[Si](C)(C)C(C)(C)C)C(C)=C[C@@H](C(=O)O1)[C@]34O)O2` (stereo not given in full), the IC50 in test [2] was 3690 nM; in test [4] it was 700 nM. For the same compound, the Activity result in test [1] was “Dose-Dependent Effect”.

One may read the IC90 as the concentration needed for an effect of 90%. Lower therefore signals greater potency. As to `CCOC(=O)c1c(C)nc(OCc2cn(CC(=O)O[C@H]3[C@H](C)O[C@@H](O[C@H]4[C@H](C)O[C@@H](O[C@@H]5/C(C)=C/C[C@@H]6C[C@@H](C[C@]7(CC[C@H](C)[C@@H](C(C)CC)O7)O6)OC(=O)[C@@H]6C=C(C)[C@@H](O)[C@H]7OC/C(=C\C=C\[C@@H]5C)[C@]76O)C[C@@H]4OC)C[C@@H]3OC)nn2)nc1-c1cc(OC)c(OC)cc1[N+](=O)[O-]` (stereo not given in full), the result in test [5] and in test [6] was inactive. For the same compound, the IC50 in test [2] was 2330 nM; in test [4] it was 30 nM. In test [2], this compound showed an IC90 of 4280 nM. The result in test [7] was Active. For the same compound, the Activity result in test [1] was “Dose-Dependent Effect”.

Take `CCC(C)[C@H]1O[C@]2(CC[C@@H]1C)C[C@@H]1C[C@@H](C/C=C(\C)[C@@H](O[C@H]3C[C@H](OC)[C@@H](OC(=O)CCl)[C@H](C)O3)[C@@H](C)/C=C/C=C3\CO[C@@H]4[C@H](O[Si](C)(C)C(C)(C)C)C(C)=C[C@@H](C(=O)O1)[C@]34O)O2` (stereo not given in full): in test [1], the result was inactive.

Compound `CCC(C)[C@H]1O[C@]2(CC[C@@H]1C)C[C@@H]1C[C@@H](C/C=C(\C)[C@@H](O)[C@@H](C)/C=C/C=C3\CO[C@@H]4[C@H](O)C(CO)=C[C@@H](C(=O)O1)[C@]34O)O2` (stereo not given in full) gave a concentration for half-maximal inhibition (IC50) in test [2] of 1640 nM. Also, the outcome in test [3] was Active. Further, the outcome in test [1] was inactive.

Regarding `CCN(CC)CCCC(C)Nc1ccnc2cc(Cl)ccc12` (stereo not given), the result in test [8] was Active.

Turning to `CCC(C)[C@H]1O[C@]2(CC[C@@H]1C)C[C@@H]1C[C@@H](C/C=C(\C)[C@@H](O[C@H]3C[C@H](OC)[C@@H](O[C@H]4C[C@H](OO)[C@@H](OC(=O)CNC5CCNCC5)[C@H](C)O4)[C@H](C)O3)[C@@H](C)/C=C/C=C3\CO[C@@H]4[C@H](O)C(C)=C[C@@H](C(=O)O1)[C@]34O)O2` (stereo not given in full), 5800 nM corresponded to half-maximal inhibition in test [2] (IC50). For the same compound, the outcome in test [3] and in test [1] was inactive.

As for `CCC(C)[C@H]1O[C@]2(CC[C@@H]1C)C[C@@H]1C[C@@H](C/C=C(\C)[C@@H](O[C@H]3C[C@H](OC)[C@@H](O[C@H]4C[C@H](OO)[C@@H](O)[C@H](C)O4)[C@H](C)O3)[C@@H](C)/C=C/C=C3\CO[C@@H]4[C@H](O)C(C)=C[C@@H](C(=O)O1)[C@]34O)O2` (stereo not given in full), in test [2], the IC50 was determined as 1500 nM and the concentration for an effect of 90% (IC90) was 3100 nM. This compound also showed an IC50 in test [4] of 460 nM. Moreover, the Activity result in test [1] was “Dose-Dependent Effect”.

As to `CCC(C)[C@H]1O[C@]2(CC[C@@H]1C)C[C@@H]1C[C@@H](C/C=C(\C)[C@@H](O[C@H]3C[C@H](OC)[C@@H](O[C@H]4C[C@H](OO)[C@@H](O)[C@H](C)O4)[C@H](C)O3)[C@@H](C)/C=C/C=C3\CO[C@@H]4[C@H](O)C(CO)=C[C@@H](C(=O)O1)[C@]34O)O2` (stereo not given in full), the IC50 in test [2] came out at 2220 nM. In addition, the result in test [3] was Active. In addition, the result in test [1] was inactive.

Take `CCC(C)[C@H]1O[C@]2(CC[C@@H]1C)C[C@@H]1C[C@@H](C/C=C(\C)[C@@H](O[C@H]3C[C@H](OC)[C@@H](O)[C@H](C)O3)[C@@H](C)/C=C/C=C3\CO[C@@H]4[C@H](O[Si](C)(C)C(C)(C)C)C(C)=C[C@@H](C(=O)O1)[C@]34O)O2` (stereo not given in full): the IC50 was determined as 2910 nM in test [2] and 720 nM in test [4]. Besides, the Activity result in test [1] was “Dose-Dependent Effect”.

For `CCOC(=O)c1c(C)nc(OCc2cn(CC(=O)O[C@H]3[C@H](C)O[C@@H](O[C@@H]4/C(C)=C/C[C@@H]5C[C@@H](C[C@]6(CC[C@H](C)[C@@H](C(C)CC)O6)O5)OC(=O)[C@@H]5C=C(C)[C@@H](O)[C@H]6OC/C(=C\C=C\[C@@H]4C)[C@]65O)C[C@@H]3OC)nn2)nc1-c1cc(OC)c(OC)cc1[N+](=O)[O-]` (stereo not given in full), the result in test [5] and in test [6] was inactive. Moreover, the half-maximal inhibitory concentration (IC50) stood at 1540 nM in test [2] and 110 nM in test [4]. Also, in test [2], the IC90 was determined as 3180 nM. For the same compound, the outcome in test [7] was Active. Besides, the Activity result in test [1] was “Dose-Dependent Effect”.

Consider `CCC(C)[C@H]1O[C@]2(CC[C@@H]1C)C[C@@H]1C[C@@H](C/C=C(\C)[C@@H](O[C@H]3C[C@H](OC)[C@@H](O[C@H]4C[C@H](OO)[C@@H](OC(=O)CCl)[C@H](C)O4)[C@H](C)O3)[C@@H](C)/C=C/C=C3\CO[C@@H]4[C@H](O[Si](C)(C)C(C)(C)C)C(C)=C[C@@H](C(=O)O1)[C@]34O)O2` (stereo not given in full), for which, in test [1], the result was inactive.

With `CCC(C)[C@H]1O[C@]2(CC[C@@H]1C)C[C@@H]1C[C@@H](C/C=C(\C)[C@@H](O[C@H]3C[C@H](OC)[C@@H](OC(=O)CNC4CCNCC4)[C@H](C)O3)[C@@H](C)/C=C/C=C3\CO[C@@H]4[C@H](O)C(C)=C[C@@H](C(=O)O1)[C@]34O)O2` (stereo not given in full), in test [2], half-maximal inhibition (IC50) required 5700 nM. The result in test [3] was Active. The result in test [1] was inactive.

For `CCC(C)[C@H]1O[C@]2(CC[C@@H]1C)C[C@@H]1C[C@@H](C/C=C(\C)[C@@H](O[C@H]3C[C@H](OC)[C@@H](O[C@H]4C[C@H](OO)[C@@H](OC(=O)CCl)[C@H](C)O4)[C@H](C)O3)[C@@H](C)/C=C/C=C3\CO[C@@H]4[C@H](O)C(C)=C[C@@H](C(=O)O1)[C@]34O)O2` (stereo not given in full), the 50% inhibitory concentration (IC50) in test [2] worked out at 2610 nM; in test [4], 300 nM. The outcome in test [3] was Active. Besides, the Activity entry in test [1] was “Dose-Dependent Effect”.

`CCC(C)[C@H]1O[C@]2(CC[C@@H]1C)C[C@@H]1C[C@@H](C/C=C(\C)[C@@H](O[C@H]3C[C@H](OC)[C@@H](O)[C@H](C)O3)[C@@H](C)/C=C/C=C3\CO[C@@H]4[C@H](O)C(CO)=C[C@@H](C(=O)O1)[C@]34O)O2` (stereo not given in full) returned a half-maximal inhibitory concentration (IC50) in test [2] of 2600 nM. The outcome in test [3] was Active. In test [1], the outcome was inactive.
